For orientation: EC50 means the concentration needed to bring the measured effect to its halfway point. High values mean a less potent agent, low ones a more potent agent.

The target in this experiment is Heat shock protein HSP90 (Homo sapiens, UniProt P07900+P08238).
Description: Displacement of GM-BODIPY from Hsp90
`COC1=C2C[C@@H](C)C[C@H](OC)[C@H](O)[C@@H](C)/C=C(\C)[C@H](OC(N)=O)[C@@H](OC)/C=C\C=C(/C)C(=O)NC(=C(NC/C=C\CNC3=C4NC(=O)/C(C)=C/C=C\[C@H](OC)[C@@H](OC(N)=O)/C(C)=C/[C@H](C)[C@@H](O)[C@@H](OC)C[C@H](C)CC(=C(OC)C3=O)C4=O)C1=O)C2=O` showed an EC50 of 345 nM.
On to `COC1=C2C[C@@H](C)C[C@H](OC)[C@H](O)[C@@H](C)/C=C(\C)[C@H](OC(N)=O)[C@@H](OC)/C=C\C=C(/C)C(=O)NC(=C(NC/C=C/CNC3=C4NC(=O)/C(C)=C/C=C\[C@H](OC)[C@@H](OC(N)=O)/C(C)=C/[C@H](C)[C@@H](O)[C@@H](OC)C[C@H](C)CC(=C(OC)C3=O)C4=O)C1=O)C2=O`, for which the EC50 was found to be 45 nM. This EC50 is about 7.7-fold lower than that of the compound before.
The same measure for `COC1=C2C[C@@H](C)C[C@H](OC)[C@H](O)[C@@H](C)/C=C(\C)[C@H](OC(N)=O)[C@@H](OC)/C=C\C=C(/C)C(=O)NC(=C(NCCCCCCCCCNC3=C4NC(=O)/C(C)=C/C=C\[C@H](OC)[C@@H](OC(N)=O)/C(C)=C/[C@H](C)[C@@H](O)[C@@H](OC)C[C@H](C)CC(=C(OC)C3=O)C4=O)C1=O)C2=O`: 465 nM; for `COC1=C2C[C@@H](C)C[C@H](OC)[C@H](O)[C@@H](C)/C=C(\C)[C@H](OC(N)=O)[C@@H](OC)/C=C\C=C(/C)C(=O)NC(=C(NCCCCNC3=C4NC(=O)/C(C)=C/C=C\[C@H](OC)[C@@H](OC(N)=O)/C(C)=C/[C@H](C)[C@@H](O)[C@@H](OC)C[C@H](C)CC(=C(OC)C3=O)C4=O)C1=O)C2=O`: 91 nM.
